Experimental data from ChEMBL document CHEMBL2375344, “Identification of pyrrolo[2,3-g]indazoles as new Pim kinase inhibitors” (Bioorg Med Chem Lett, 2013).

Legend:
[1] = target: T1, Serine/threonine-protein kinase pim-3 (Homo sapiens, UniProt Q86V86); test: Inhibition of human full length Pim-3 using RSRHSSYPAGT as substrate assessed as residual activity after 30 mins in presence of [gamma-33P]ATP
[2] = target: T2, Serine/threonine-protein kinase pim-1 (Homo sapiens, UniProt P11309); test: Inhibition of human full length Pim-1 using RSRHSSYPAGT as substrate assessed as residual activity after 30 mins in presence of [gamma-33P]ATP
Target sequence in this assay (P11309 whole entry): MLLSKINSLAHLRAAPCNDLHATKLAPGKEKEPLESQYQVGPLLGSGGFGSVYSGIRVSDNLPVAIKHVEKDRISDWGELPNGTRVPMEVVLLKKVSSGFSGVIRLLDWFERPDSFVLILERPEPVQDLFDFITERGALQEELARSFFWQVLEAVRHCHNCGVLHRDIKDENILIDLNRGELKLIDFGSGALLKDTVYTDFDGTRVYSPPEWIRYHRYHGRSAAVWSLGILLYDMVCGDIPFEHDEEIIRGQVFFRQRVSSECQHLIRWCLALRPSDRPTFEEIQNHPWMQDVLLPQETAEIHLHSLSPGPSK

[3] = target: T1, Serine/threonine-protein kinase pim-3; test: Inhibition of human full length Pim-3 using RSRHSSYPAGT as substrate assessed as residual activity at 1 uM after 30 mins in presence of [gamma-33P]ATP; values are per cent of control
[4] = target: Serine/threonine-protein kinase pim-2 (Homo sapiens) (UniProt Q9P1W9); test: Inhibition of human full length Pim-2 using RSRHSSYPAGT as substrate assessed as residual activity at 1 uM after 30 mins in presence of [gamma-33P]ATP; values are per cent of control
[5] = target: T2, Serine/threonine-protein kinase pim-1; test: Inhibition of human full length Pim-1 using RSRHSSYPAGT as substrate assessed as residual activity at 1 uM after 30 mins in presence of [gamma-33P]ATP; values are per cent of control
Target sequence in this assay (P11309 whole entry, looked up): as the sequence (P11309 whole entry) above

[6] = target: T1, Serine/threonine-protein kinase pim-3; test: Inhibition of human full length Pim-3 using RSRHSSYPAGT as substrate assessed as residual activity at 10 uM after 30 mins in presence of [gamma-33P]ATP; values are per cent of control
[7] = target: Serine/threonine-protein kinase pim-2 (Homo sapiens) (UniProt Q9P1W9); test: Inhibition of human full length Pim-2 using RSRHSSYPAGT as substrate assessed as residual activity at 10 uM after 30 mins in presence of [gamma-33P]ATP; values are per cent of control
[8] = target: T2, Serine/threonine-protein kinase pim-1; test: Inhibition of human full length Pim-1 using RSRHSSYPAGT as substrate assessed as residual activity at 10 uM after 30 mins in presence of [gamma-33P]ATP; values are per cent of control
Target sequence in this assay (P11309 whole entry, looked up): as the sequence (P11309 whole entry) above

Sequence of Serine/threonine-protein kinase pim-2 (Homo sapiens) (Q9P1W9 whole entry, looked up): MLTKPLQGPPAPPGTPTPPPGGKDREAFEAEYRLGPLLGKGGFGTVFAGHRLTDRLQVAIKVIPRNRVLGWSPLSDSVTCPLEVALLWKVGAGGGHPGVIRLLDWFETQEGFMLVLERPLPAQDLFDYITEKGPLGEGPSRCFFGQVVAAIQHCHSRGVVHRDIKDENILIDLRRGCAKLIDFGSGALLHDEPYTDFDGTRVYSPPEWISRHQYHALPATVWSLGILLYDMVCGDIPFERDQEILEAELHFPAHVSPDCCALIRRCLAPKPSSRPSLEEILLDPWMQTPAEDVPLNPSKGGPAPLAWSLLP

Structure (SMILES)	IC50 [1]	IC50 [2]	residual activity [3]	residual activity [4]	residual activity [5]	residual activity [6]	residual activity [7]	residual activity [8]
CCc1[nH]c2c([N+](=O)[O-])cc3cn[nH]c3c2c1-c1ccccc1	119 nM	230 nM	31%	77%	43%	36%	84%	51%
CCCc1c(C(=O)OC)[nH]c2c([N+](=O)[O-])cc3cn[nH]c3c12	546 nM	–	50%	113%	110%	24%	85%	39%
CCc1[nH]c2c(N)cc3cn[nH]c3c2c1-c1ccccc1	–	–	72%	91%	92%	23%	75%	44%
CCOC(=O)c1[nH]c2c([N+](=O)[O-])cc3cn[nH]c3c2c1-c1ccccc1	–	–	73%	92%	86%	90%	113%	55%
Cc1c[nH]c2c(N)cc3cn[nH]c3c12	–	–	65%	105%	91%	17%	88%	63%
CCCc1c[nH]c2c(N)cc3cn[nH]c3c12	–	–	79%	90%	104%	39%	93%	57%
CCOC(=O)c1[nH]c2c(N)cc3cn[nH]c3c2c1-c1ccccc1	–	–	72%	101%	74%	20%	74%	29%
O=[N+]([O-])c1cc2cn[nH]c2c2cc[nH]c12	–	–	78%	92%	102%	18%	80%	30%
O=Cc1c[nH]c2c([N+](=O)[O-])cc3cn[nH]c3c12	–	–	76%	117%	97%	25%	70%	27%

Next, values leading:

IC50 [1]	IC50 [2]	residual activity [3]	residual activity [4]	residual activity [5]	residual activity [6]	residual activity [7]	residual activity [8]	Structure (SMILES)
470 nM	–	51%	103%	63%	9%	64%	17%	C[Si](C)(C)c1cc2c([nH]1)c([N+](=O)[O-])cc1cn[nH]c12
–	–	72%	105%	78%	47%	97%	72%	CCOC(=O)c1[nH]c2c([N+](=O)[O-])cc3cn[nH]c3c2c1C
530 nM	1000 nM	38%	82%	52%	21%	70%	28%	O=[N+]([O-])c1cc2cn[nH]c2c2c(-c3ccccc3)c[nH]c12
–	–	67%	93%	94%	24%	111%	52%	C[Si](C)(C)c1cc2c([nH]1)c(N)cc1cn[nH]c12
–	–	71%	109%	82%	19%	63%	26%	CCOCc1c[nH]c2c([N+](=O)[O-])cc3cn[nH]c3c12
–	–	82%	105%	71%	12%	78%	26%	CCCc1c(C(=O)OC)[nH]c2c(N)cc3cn[nH]c3c12
–	–	93%	102%	93%	26%	97%	61%	CCOC(=O)c1[nH]c2c(N)cc3cn[nH]c3c2c1C
33 nM	460 nM	20%	99%	63%	4%	104%	17%	Nc1cc2cn[nH]c2c2cc[nH]c12
260 nM	–	24%	66%	78%	6%	27%	54%	CCCc1c[nH]c2c([N+](=O)[O-])cc3cn[nH]c3c12
–	–	68%	103%	111%	26%	92%	51%	Nc1cc2cn[nH]c2c2c(-c3ccccc3)c[nH]c12
–	–	77%	99%	68%	26%	61%	26%	Cc1c[nH]c2c([N+](=O)[O-])cc3cn[nH]c3c12
